According to US11891623B2, “Generation of neural stem cells from human trophoblast stem cells” (Accelerated BioSciences Corp., priority 2010, dated 2024):

Columns and labels:
[1] = system: intracellular calcium in hTS cells; experiment: Real-time live cell calcium imaging in RA-treated hTS cells; type: cell-based, human
Method: FIGS. 21a-21n illustrate activation of Gαq/11 signaling pathway: (21a) illustrates expressions of Gαq/11 pathway-related components after RA treatment (10 μM) over time by Western blots; (21b) illustrates real-time live cell imaging microscopy (Cell-R system, Olympus, Tokyo) in hTS cells which were cultured in the calcium-free medium and pre-loaded with Fluo4 (1 μM) in BSS buffer 20 min before RA treatment. […] (c) After depletion of ER calcium, KCl (60 mM) enabled to activate L-type calcium channels.

Huh-7 cells = experiment: BBP-induced signaling in Huh-7 cells (RT-PCR, Western blot, immunofluorescence); type: cell-based, human
Method: Huh-7 cells (3×10^5) were seeded into a 6-well dish and incubated for 24 h. Cells cultured serum-free medium overnight were treated with BBP (1 μM) for various time intervals. After BBP stimulation, cells were washed twice with PBS. Total RNAs were extracted by TRIzol methods (Invitrogen). RNA (2 μg) was used to synthesize cDNA by Reverse Transcription System (Promega). The c-DNAs were amplified by the specific primers. The primer pairs were designed as follows: AhR, forward 5′-TACTCTGCCGCCCAAACTGG-3′ (SEQ ID NO:49), reverse 5′-GCTCTGCAACCTCCGATTCC-3′ (SEQ ID NO:50); β-actin, forward 5′-CTC GCT GTC CAC CTT CCA-3′ (SEQ ID NO:51), reverse 5′-GCT GTC ACC TTC ACC GTTC-3′ (SEQ ID NO:52). PCR conditions were set at 95° C. for 5 min and 95° C. for 30 sec, 54° C. for 30 sec, 72° C. for 1 min followed by 72° C. for 10 min (36 cycles). The products were separated by 2% agarose gels and visualized by ethidium bromide.
Huh-7 cells (1×10^6) were seeded into 10 cm dish and cultured overnight. The culture medium was changed to serum-free medium for another night. Cells were treated with BBP (1 μM) for various time intervals. […] Cells were then washed twice with ice-cold PBS and lysed by RIPA lysis buffer (Minipore). Protein concentration was measured by BCA protein assay kit (Thermo). Equal amounts of protein (30 μg protein) were resolved by 8% SDS-PAGE, transferred onto PVDF membrane, and blocked with 5% non-fat dry milk for 1 h at room temperature. After blocking, the membrane was incubated with the primary antibodies including AhR (1:1000), Cox-2 (1:1000), Gαq/11 (1:100), Gβ (1:100), β-actin (1:5000), p44/42 MAP kinase (1:1000) or phospho-p44/42 MAP kinase (1:1000) overnight at 4° C. Cells were washed three times with PBST and then incubated with HRP conjugated secondary antibodies for 1 h at room temperature. After washing, the blot was visualized using an enhanced chemiluminescence kit (ECL) (Amersham).
Cells with or without transfection by AhR siRNA were cultured and treated with BBP (1 μM) for 5 and 15 min each. After treatment with primary and secondary antibodies for AhR and Gαq/11, cells were subjected to confocal immunofluorescence microscopy to analyze the dynamic movement in the cell compartments.

IP3R = settings: pretreatment with 2-APB
[2] = system: intracellular calcium in Huh-7 cells; experiment: Real-time live cell calcium imaging in BBP-treated Huh-7 cells; type: cell-based, human
Method: Cells were pre-treated with Fluo-4 (1 μM), a Ca^2+-specific dye, in BSS buffer at 37° C. for 20 min before treatment with BBP (1 μM). Measurements of relative intracellular calcium intensity were performed by real-time cell imaging microscopy and analyzed by Cell-R software system (Olympus).

AhR = experiment: TIRF microscopy of GFP-tagged AhR at the plasma membrane in Huh-7 cells; type: cell-based, human; settings: BBP 1 μM
From the text: Immunofluorescence studies are considered important for the dynamic study of signal transduction through their ability to capture snapshots of molecular changes in the cell. Human hepatic Huh-7 cancer cells were pre-transfected with pGFP-C1-AhR by using LT1 transfection reagent (Minis Bio LLC, WI) and total internal reflection fluorescence microscopy to selectively observe the molecular events in the cytoplasmic region immediately beneath the plasma membrane. When BBP was introduced, a rapid but transient recruitment and translocation of the GFP-tagged AhR occurred at the subcellular membrane regions, showing a fast elevation and peaking in 115 seconds followed by a gradual decrease in AhR that occurred over a few minutes (FIG. 14a). This fast, dynamic movement of the memAhR at the subcellular membrane is reminiscent of the notion of soft-wired signal transduction.
Huh-7 cells were pre-transfected with pGFP-C1-AhR (a gift of H. Li) by using LT1 transfection reagent (Minis Bio LLC, Madison, WI) for 24 h. For TIRF microscopy, cells were cultured in serum-free medium on cover-slip overnight followed by stimulation by BBP (1 μM, Sigma). The dynamic activities of GFP-tagged AhR at the cell membrane were observed and analyzed by using Zeiss TIRF microscope with Axio Vision Rel. 4.8 software.

hTS cells [3] = experiment: RA effect on Nanog, Oct4, Sox2, Cdx2 expression in hTS cells (flow cytometry)
[4] = system: protein kinase C (PKC) pathway; settings: cited from earlier work
hTS cells [5] = experiment: RA-induced differentiation of hTS cells; type: cell-based, human
Method: In another embodiment, a similar ratio in distribution of mixed RA-induced neural progenitors results over 1 to 5-day RA-induction periods. In another embodiment, the cell differentiation becomes undefined trophoblast giant cells over a 7-day RA treatment.
Cells were cultured in conditioned α-MEM containing 20% FBS, 1% penicillin-streptomycin, and 10 μg/ml bFGF (CytoLab Ltd, Rehovot, Israel) at 37° C. in 5% CO2. The medium was refreshed every 3 days in general. After 5 passages of culture, cell differentiations into a variety of specific cell phenotypes were performed by various strategies as shown in the Table in FIG. 12. For osteogenic differentiation, cytochemical mineral matrix was analyzed using an Alizarin red S assay (Sigma-Aldrich, St. Louis, MO) to detect the calcium mineral content. To identify the calcium deposits, cells were fixed and incubated with 2% silver nitrate solution (w/v) for 10 min in dark followed by thorough wash with de-ionized water and exposed under bright light for 15 min. Cells were treated with […] to detect alkaline phosphatase activity using a commercial kit (Sigma-Aldrich, St. Louis, MO). Chondrogenic differentiation was confirmed using Alcian blue staining (Sigma-Aldrich, St. Louis, MO) at an acidic pH level. […]

hTS cells [6] = experiment: RA-induced protein/mRNA expression over time in hTS cells (Western blots, RT-PCR, flow cytometry); type: cell-based, human
Method: For RT-PCR, total RNA from 10^5-10^6 cells was extracted by using TRIZOL reagent (Invitrogen) and mRNA expression by using a Ready-To-Go RT-PCR Beads kit (Amersham Biosciences, Buckinghamshire, UK). Briefly, the reaction products were resolved on 1.5% agarose gel and visualized with ethidium bromide. β-actin or β-2 microglobulin was used as a positive control. All experiments were performed in triplicate. For qPCR, gene expression was measured with the iQ5 Real-Time PCR Detection System (Bio-Rad Laboratories) and analyzed with Bio-Rad iQ5 Optical System Software, version 2.0 (Bio-Rad Laboratories). Relative mRNA levels were calculated using the comparative Ct method (Bio-Rad, instruction manual) and presented as a ratio to biological controls. All primer pairs were confirmed to approximately double the amount of product within one cycle and to yield a single product of the predicted size.
Cells were seeded into 10 cm dish with the serum-free medium for overnight and treated with or without RA (10 μM) for various time intervals as indicated. After stimulation, cells were washed twice with ice-cold PBS and lysed by RIPA lysis buffer (Minipore). Protein concentration was determined by BCA protein assay kit (Thermo). Equal amounts of protein (30 μg) were resolved by 8% SDS-PAGE, transferred onto PVDF membrane and blocked with 5% non-fat dry milk for 1 h at room temperature. After blocking, the membrane was incubated with primary antibodies for 4 h at 4° C. Cells were washed three times with PBST and then incubated with HRP conjugated secondary antibodies for 1 h at room temperature. After washing six times with PBST buffer, the membrane was incubated with a chemiluminescent substrate (GE Healthcare) for 1 min. Specific bands were visualized using an enhanced chemiluminescence kit (ECL) (Amersham).
hTS cells obtained from the preimplantation embryos in women with early tubal ectopic pregnancy were described previously. Adherent hTS cells were cultured in conditioned α-MEM containing 10 μg/ml bFGF (JRH, Biosciences, San Jose, CA), 10% FBS, and 1% penicillin-streptomycin at 37° C. in 5% CO2. Cells were treated by RA (10 μM) for various time intervals depending on the experiments.

CaMKII = CaMKII inhibitor effect on eIF4B expression (Western blots); type: cell-based, human; settings: KN93 1 μM, 2 hr
Method: FIGS. 21a-21n illustrate activation of Gαq/11 signaling pathway: (21a) illustrates expressions of Gαq/11 pathway-related components after RA treatment (10 μM) over time by Western blots; (21b) illustrates real-time live cell imaging microscopy (Cell-R system, Olympus, Tokyo) in hTS cells which were cultured in the calcium-free medium and pre-loaded with Fluo4 (1 μM) in BSS buffer 20 min before RA treatment. (a) The RA-induced depletion of intracellular calcium was rescued by adding CaCl2 (2 mM) with a SOCE pattern. […] (c) After depletion of ER calcium, KCl (60 mM) enabled to activate L-type calcium channels.
The transient CaMKII bound and activated eukaryotic initiation factor 4B (eIF4B) (FIG. 21c) to initiate mRNA translation machinery via a cap-independent mechanism.

For `NCCOB(c1ccccc1)c1ccccc1` [2-APB, 2-aminoethoxydiphenyl borate], the “RA-induced ER calcium release” value ([1]; 2-APB, dose-dependent) was “inhibited”, the “BBP-induced COX-2 production” value (Huh-7 cells) was “blocked” and the “Calcineurin, NFAT1, and MEF2A expression” value (IP3R) was “inhibited”. The “BBP-elicited intracellular calcium levels” value ([2]; 2-APB at various concentrations) was “dose-dependently inhibit”.

In the case of `CCCCOC(=O)c1ccccc1C(=O)OCc1ccccc1` [BBP, Benzyl butyl phthalate], the “time to peak of GFP-tagged AhR recruitment at subcellular membrane” value (AhR) was 115 s, the “time of COX-2 production” value (Huh-7 cells; BBP 1 μM) was 15 min and the “time of induction of AhR mRNA expression” value (Huh-7 cells; BBP 1 μM, RT-PCR) was 5 min. The “time of peak AhR mRNA expression” value (Huh-7 cells; BBP 1 μM, RT-PCR) was 15 min, the “time of Gαq/11 and Gβ production” value (Huh-7 cells; BBP 1 μM, Western blot) was 30 min and the “time of elevation in AhR production” value (Huh-7 cells; BBP 1 μM, Western blot) was 15 min. The ARNT expression (Huh-7 cells; BBP 1 μM, overnight) was “significantly inhibited”, the “time of ERK1/2 phosphorylation” value (Huh-7 cells; BBP 1 μM, dephosphorylated at 30 min) was 15 min and the intracellular calcium response ([2]; BBP 1 μM, calcium free medium) was “release of intracellular calcium”.

For `CC1=C(/C=C/C(C)=C/C=C/C(C)=C/C(=O)O)C(C)(C)CCC1` [RA, all-trans retinoic acid], the “effect on expression of Nanog, Oct4, Sox2, Cdx2” value (hTS cells [3]; RA one day) is given as “promoted expressions of Nanog, Oct4 and Sox2 but not Cdx2”, the Nanog expression (hTS cells [3]; RA-induced cells (10 μM, 1 day)) is given as 26.9% and the “time of translocation of PKC-γ” value [4] is given as no more than 5 min. For the same compound, the “increase in intracellular diacylglycerol (DG)” value ([4]; transient, at 2 min) was 1.3 fold, the “intracellular Ca2+ response” value ([1]; RA, calcium-free medium, Fluo4) was “transiently intracellular Ca^2+ release” and the “differentiation of hTS cells into neural cell phenotypes” value (hTS cells [5]; RA 10 μM, 1 to 7 days) was “induces hTS cells differentiation into a variety of phenotypical neural cells”. The giant cell formation (hTS cells [5]; treatment with all-trans retinoic acid) was “resulted in a formation of giant cells”, the “time of peak c-Src mRNA expression” value (hTS cells [6]; RA 10 μM, RT-PCR) was 15 min and the “time of transient elevation of RXRα mRNA and RARβ mRNA” value (hTS cells [6]; RA 10 μM, RT-PCR) was 15 min. The “time of production of c-Src protein” value (hTS cells [6]; RA 10 μM, Western blot) was 1 h, the “Wnt2B and FRAT1 expression” value (hTS cells [6]; RA 4 hr and 24 hr incubation, Western blots) was “significantly upregulated” and the GSK3β activity state (hTS cells [6]; RA 4 hr vs overnight, flow cytometry) was “initially activated in 4 hr but transited into inhibitory later”. For the same compound, the “Fzd6 mRNA expression” value (hTS cells [6]; RA, RT-PCR) was “overexpression”, the calcineurin production (hTS cells [6]; RA, Western blot) was “induced production” and the “time of CaMKII activation” value (hTS cells [6]; RA, Western blot) was 1 to 2 h. For the same compound, the “time of HDAC6 elevation” value (hTS cells [6]; RA, Western blot) was 2 h, the “time of Nanog production” value (hTS cells [6]; RA, Western blot) was 4 h and the “time of RARβ production” value (hTS cells [6]; RA, Western blots) was 4 h. The “time of c-Src expression” value (hTS cells [6]; RA, Western blots) was 5 min, the “time of production of Gαq/11 and Gβ” value (hTS cells [6]; RA, Western blots) was 30 min and the “time of transient Akt3 activation” value (hTS cells [6]; RA, Western blots) was 1 h. The β-catenin activation (hTS cells [6]; RA, between 30 min and 24 hr, Western blots) was “significantly activated”, the “time of mTOR phosphorylation at serine 2448” value (hTS cells [6]; RA, disappeared after 24 hr) was 4 h and the “time of peak eIF4B production” value (hTS cells [6]; RA, fading away at 24 hr) was 4 h.

For `COc1ccc(S(=O)(=O)N(CCO)c2ccccc2CN(C)C/C=C/c2ccc(Cl)cc2)cc1` [KN93], the eIF4B expression (CaMKII) was “inhibited”.
